Assay [1] relates to N87 (human gastric cancer cell NCI-N87). Kind of assay: In vitro proliferation inhibition assay of cell lines (CellTiter-Glo), N87. The note with it: N87 cells, 72 hours. The format is cell-based. On the procedure: (§1) In Vitro Proliferation Inhibition Assay of Cell Lines
(§2) 1. Cell culture and inoculation: on the first day of the experiment, normal cultured cells were taken, and in the exponential growth state, after digestion and dispersion, the cell density was then adjusted to 8.8×10^4 cells/mL for BT-474, and 6.6×10^4 cells/mL for N87, and 90 μL of which were inoculated to each well of a 96-well cell culture plate; after the inoculation was completed, the microplate was cultured under the conditions of 37° C. and 5% CO2 overnight. 2. Dosing to the cells: on the second day of the experiment, the microplate was taken out from the incubator, and 10 μL of 10× compound was added to each well of the microplate, setting 2 duplicate wells for each drug concentration and 9 dosing concentrations for each compound. According to different cell lines, the initial concentration of each compound was different. Upon completion of addition, the microplate was placed under the conditions of 37° C. and 5% CO2 for 72 hours. 3. Data acquisition: the microplate was taken out from the incubator and was allowed to equilibrate at room temperature for 30 minutes. 100 μL of CellTiter-Glo® Luminescent Cell Viability Assay reaction solution which had been equilibrated at room temperature was added to each well, and the reaction solution was shaken at 1300 rpm for 2 minutes at room temperature. After that, the microplate was placed in HERAEUS Multifuge X1R centrifuge, centrifuged at 2000 rpm for 1 minute, and allowed to equilibrate at room temperature for 10 minutes. The fluorescence signal value was measured on EnVision™.
(Cellular ATP, detected with luciferase, serves as a proxy for viable cell number.)

For assay [2], the target named is EGFR kinase (Homo sapiens, UniProt P00533). The assay is described as follows: EGFR/ErbB2 enzymatic experiment (HTRF kinEASE-TK), EGFR. The note with it: EGFR kinase 0.06 units/μL, ATP 1.65 μM; read-out: Kinase IC50 (nM) in vitro EGFR. The format is biochemical. On the procedure:
(§3) EGFR/ErbB2 Enzymatic Experiment
(§4) Firstly, 1× reaction buffer required for the kinase was prepared, then 5× Enzymatic buffer (HEPES 20 mM pH 7.0, NaN3 0.1%, BSA 0.05%, sodium orthovanadate 0.5 mM) was diluted in HTRF kinEASE-TK kit by 1 time with deionized water, and 50 nM Supplement Enzymatic buffer (SEB REAGENT), 1 mM MnCl2, 5 mM MfCl2, 1 mM DTT were added. Secondly, 5× compound was prepared, and 10 mM test compound storage solution was diluted in multiple steps with DMSO in a 96-well compound plate to prepare 100× compound as an initial concentration, which was then used as the first concentration to carry out a 3-fold gradient dilution with DMSO to obtain a total of 10 concentrations. Then 1 μL of gradient diluent was added to 19 μL of 1× reaction buffer to prepare 5× compound for later use. Then 2 μL of 5× compound was transferred from the 96-well plate into a 384-well plate. To the compound-free control wells was added 2 μL of the following liquid: 19 μL of 1× reaction buffer with addition of 1 μL of DMSO. To the blank control well was added 2 μL of 250 mM EDTA. […] In the fourth step of reaction termination, HTRF Detection buffer was used to prepare a mixture of 2×TK Antibody-EU (K) and Sa-XL665, and the amount of TK Antibody-EU (K) was 5 μL per well. After the enzyme reaction was carried out for 30 minutes, 10 μL of the above liquid was added to a 384-well plate, and the reaction was carried out at room temperature for 1 hour. […] RFU665 nM and RFU620 nM were measured, and RFU665 nM/RFU620 nM×10000 was used as final data for analysis.
In general terms: Time-resolved FRET reads energy transfer from a long-lived donor to a nearby acceptor.

The target in assay [3] is T1, ErbB2 kinase (Homo sapiens, UniProt P04626).
T1 construct: The final concentration of ErbB2 kinase was 0.06 ng/μL
Kind of assay: EGFR/ErbB2 enzymatic experiment (HTRF kinEASE-TK), ErbB2. Conditions: ErbB2 kinase 0.06 ng/μL, ATP 4 μM; read-out: Kinase IC50 (nM) in vitro ErbB2. The format is biochemical. The procedure: as §3, §4

The test system of assay [4] is BT-474 (human breast cancer cell). Kind of assay: In vitro proliferation inhibition assay of cell lines (CellTiter-Glo), BT-474. It is filed as cell-based. Conditions: BT-474 cells, 72 hours. The procedure:
as §1
as §2, with “Cell culture and inoculation: on the first day of the experiment, normal cultured cells were taken, and in the exponential growth state, after digestion and dispersion, the cell density was then adjusted to 8.8×10^4 cells/mL for BT-474, and 6.6×10^4 cells/mL for N87, and 90 μL of which were inoculated to each well of a 96-well cell culture plate; after the inoculation was completed, the microplate was cultured under the conditions of 37° C. and 5% CO2 overnight.” left out

T1 sequence (P04626 23-1255): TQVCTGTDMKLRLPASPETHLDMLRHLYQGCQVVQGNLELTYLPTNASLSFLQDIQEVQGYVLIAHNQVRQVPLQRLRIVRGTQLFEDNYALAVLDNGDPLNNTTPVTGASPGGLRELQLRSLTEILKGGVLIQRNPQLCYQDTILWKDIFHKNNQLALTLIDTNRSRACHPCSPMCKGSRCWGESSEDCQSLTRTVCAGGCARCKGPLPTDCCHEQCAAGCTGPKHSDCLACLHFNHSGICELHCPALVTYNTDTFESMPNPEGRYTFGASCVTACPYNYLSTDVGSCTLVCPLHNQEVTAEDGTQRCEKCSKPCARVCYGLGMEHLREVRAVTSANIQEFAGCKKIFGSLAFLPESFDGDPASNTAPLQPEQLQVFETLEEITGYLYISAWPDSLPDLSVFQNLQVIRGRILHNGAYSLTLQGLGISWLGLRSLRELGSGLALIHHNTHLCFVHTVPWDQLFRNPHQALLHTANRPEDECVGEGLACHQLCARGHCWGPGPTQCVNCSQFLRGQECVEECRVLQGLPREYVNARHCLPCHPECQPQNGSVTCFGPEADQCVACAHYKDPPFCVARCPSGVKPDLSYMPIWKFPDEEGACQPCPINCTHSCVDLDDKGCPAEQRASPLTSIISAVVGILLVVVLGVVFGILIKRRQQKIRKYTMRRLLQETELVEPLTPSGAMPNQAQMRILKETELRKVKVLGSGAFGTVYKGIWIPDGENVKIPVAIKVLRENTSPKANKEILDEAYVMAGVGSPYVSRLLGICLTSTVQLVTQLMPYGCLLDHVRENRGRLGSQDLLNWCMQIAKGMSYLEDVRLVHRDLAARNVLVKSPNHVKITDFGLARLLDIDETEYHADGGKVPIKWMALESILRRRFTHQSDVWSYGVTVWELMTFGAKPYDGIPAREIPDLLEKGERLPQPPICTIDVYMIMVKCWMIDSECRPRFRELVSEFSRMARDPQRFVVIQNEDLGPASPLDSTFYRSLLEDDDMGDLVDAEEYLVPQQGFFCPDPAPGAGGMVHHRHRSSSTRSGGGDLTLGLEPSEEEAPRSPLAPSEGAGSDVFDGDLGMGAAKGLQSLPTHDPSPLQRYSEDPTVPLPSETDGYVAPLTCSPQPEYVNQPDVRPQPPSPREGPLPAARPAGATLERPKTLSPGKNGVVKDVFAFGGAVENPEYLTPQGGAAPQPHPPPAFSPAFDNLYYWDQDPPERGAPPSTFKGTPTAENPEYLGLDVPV
Chain of EGFR kinase (P00533 25-1210): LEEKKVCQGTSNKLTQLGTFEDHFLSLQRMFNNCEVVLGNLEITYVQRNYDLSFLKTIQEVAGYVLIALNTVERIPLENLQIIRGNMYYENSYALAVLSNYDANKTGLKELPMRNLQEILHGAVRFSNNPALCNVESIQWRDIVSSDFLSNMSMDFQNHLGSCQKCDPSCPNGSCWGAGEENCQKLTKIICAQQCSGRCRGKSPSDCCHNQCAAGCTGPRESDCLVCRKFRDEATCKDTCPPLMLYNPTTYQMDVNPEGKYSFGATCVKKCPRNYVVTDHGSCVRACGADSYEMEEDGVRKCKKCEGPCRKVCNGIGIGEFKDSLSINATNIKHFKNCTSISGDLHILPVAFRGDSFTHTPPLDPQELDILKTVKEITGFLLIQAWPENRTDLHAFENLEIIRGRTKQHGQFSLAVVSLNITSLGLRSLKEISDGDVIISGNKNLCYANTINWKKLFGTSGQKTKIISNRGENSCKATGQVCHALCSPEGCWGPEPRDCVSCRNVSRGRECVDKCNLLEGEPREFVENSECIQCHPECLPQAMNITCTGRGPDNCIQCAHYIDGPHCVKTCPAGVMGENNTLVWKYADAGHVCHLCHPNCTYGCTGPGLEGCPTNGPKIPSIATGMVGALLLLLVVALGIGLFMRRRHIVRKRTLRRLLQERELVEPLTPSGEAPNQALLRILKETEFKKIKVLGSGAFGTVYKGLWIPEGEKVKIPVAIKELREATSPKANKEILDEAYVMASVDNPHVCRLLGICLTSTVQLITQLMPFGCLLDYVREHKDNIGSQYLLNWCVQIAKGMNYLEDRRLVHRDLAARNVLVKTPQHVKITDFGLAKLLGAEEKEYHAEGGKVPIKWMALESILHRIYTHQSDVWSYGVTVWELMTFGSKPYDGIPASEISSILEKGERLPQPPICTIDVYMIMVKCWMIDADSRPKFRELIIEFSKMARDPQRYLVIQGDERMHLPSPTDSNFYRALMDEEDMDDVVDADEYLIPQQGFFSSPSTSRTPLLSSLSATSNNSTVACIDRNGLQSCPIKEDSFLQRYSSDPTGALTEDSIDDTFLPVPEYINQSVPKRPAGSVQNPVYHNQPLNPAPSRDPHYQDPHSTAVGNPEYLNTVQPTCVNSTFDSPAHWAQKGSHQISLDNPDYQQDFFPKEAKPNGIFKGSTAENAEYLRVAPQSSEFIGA

`Cc1cc(Nc2ncnc3ccc(NC(=O)C=CC4COCCN4)cc23)ccc1Oc1cc2nncn2cn1` (stereo in doubt) [Final product of Embodiment 28, (E)-N-(4-((4-([1,2,4]triazolo[4,3-c]pyrimidin-7-yloxy)-3-methylphenyl)amino)quinazolin-6-yl)-3-(morpholin-3-yl)acrylamide]: the IC50 in assay [1] was found to be 33.4 nM; in assay [2] it was 5.29 nM; in assay [3], 3.25 nM; in assay [4] it was 11 nM.

As for `COCCOc1cc2ncnc(Nc3ccc(Oc4cc5nncn5cn4)c(C)c3)c2cc1NC(=O)/C=C/[C@H]1CCCN1C` [Final product of Embodiment 36], the IC50 in assay [1] stood at 1.64 nM; in assay [2] it was 0.53 nM; in assay [3], 1.1 nM; in assay [4], 1.89 nM.

`Cc1cc(Nc2ncnc3ccc(NC(=O)/C=C/[C@@H]4CCCN4C)cc23)ccc1Oc1cc2nncn2cn1` [Final product of Embodiment 1-97, (S,E)-N-(4-((4-([1,2,4]triazolo[4,3-c]pyrimidin-7-yloxy)-3-methylphenyl)amino)quinazolin-6-yl)-3-(1-methylpyrrolidin-2-yl)acrylamide] displayed an IC50 in assay [1] of 10 nM.

With `Cc1cc(Nc2ncnc3ccc(NC(=O)/C=C/[C@H]4CCCN4C)cc23)ccc1Oc1ccn2cnnc2c1` [Final product of Embodiment 25], the IC50 in assay [1] was determined as 68.2 nM; in assay [2] it was 23.4 nM; in assay [3] it was 8.47 nM; in assay [4], 50.7 nM.

As for `Cc1cc(Nc2c(C#N)cnc3ccc(NC(=O)/C=C/[C@H]4CCCN4)cc23)ccc1Oc1cc2nncn2cn1` [Final product of Embodiment 21, (R,E)-N-(4-((4-([1,2,4]triazolo[4,3-c]pyrimidin-7-yloxy)-3-methylphenyl)amino)-3-cyanoquinolin-6-yl)-3-(pyrrolidin-2-yl)acrylamide], the IC50 in assay [1] was 94 nM; in assay [2] it was 3.46 nM; in assay [3], 8.25 nM; in assay [4] it was 54.6 nM.

For the molecule `C=CC(=O)Nc1ccc2ncc(C#N)c(Nc3ccc(Oc4cc5nncn5cn4)c(C)c3)c2c1` [Final product of Embodiment 9, N-(4-((4-([1,2,4]triazolo[4,3-c]pyrimidin-7-yloxy)-3-methylphenyl)amino)-3-cyanoquinolin-6-yl)acrylamide], the IC50 in assay [1] came to 18.8 nM; in assay [2], 13.8 nM; in assay [3], 7.98 nM; in assay [4], 9.62 nM.

Turning to `Cc1cc(Nc2ncnc3ccc(/C=C/C(=O)NC4CC4)cc23)ccc1Oc1cc2nncn2cn1` [Final product of Embodiment 16, (E)-3-(4-((4-([1,2,4]triazolo[4,3-c]pyrimidin-7-yloxy)-3-methylphenyl)amino)quinazolin-6-yl)-N-cyclopropylacrylamide], the IC50 in assay [1] worked out at 692 nM; in assay [2], 33.7 nM; in assay [3] it was 22 nM; in assay [4] it was 256 nM.

Turning to `Cc1cc(Nc2ncnc3ccc(NC(=O)/C=C/[C@H]4CCCN4C)cc23)ccc1Oc1cnn2cnnc2c1` [Final product of Embodiment 29, (R,E)-N-(4-((4-([1,2,4]triazolo[4,3-b]pyridazin-7-yloxy)-3-methylphenyl)amino)quinazolin-6-yl)-3-(1-methylpyrrolidin-2-yl) acrylamide], the IC50 in assay [1] worked out at 60.4 nM; in assay [2], 20.5 nM; in assay [3] it was 15.2 nM; in assay [4], 46.6 nM.

Take `Cc1cc(Nc2c(C#N)cnc3ccc(NC(=O)/C=C/[C@H]4CCCN4C)cc23)ccc1Oc1cnc2c(cnn2C)c1` [Final product of Embodiment 31]: the IC50 in assay [1] amounted to 66.5 nM; in assay [2] it was 65.2 nM; in assay [3], 220 nM; in assay [4], 76 nM.

Regarding `Cc1cc(Nc2ncnc3ccc(/C=C/C(=O)N(C)C)cc23)ccc1Oc1cc2nncn2cn1` [Final product of Embodiment 15, (E)-3-(4-((4-([1,2,4]triazolo[4,3-c]pyrimidin-7-yloxy)-3-methylphenyl)amino)quinazolin-6-yl)-N,N-dimethylacrylamide], the IC50 came out at 301 nM in assay [1], 156 nM in assay [2], 17.5 nM in assay [3] and 162 nM in assay [4].

On to `Cc1cc(Nc2ncnc3ccc(NC(=O)/C=C/[C@H]4CCCN4C)cc23)ccc1Oc1ccc2nc[nH]c2c1`, for which the IC50 amounted to 22.6 nM in assay [1], 1.5 nM in assay [2], 0.689 nM in assay [3] and 15.4 nM in assay [4].

For `COCCOc1cc2ncnc(Nc3ccc(Oc4cc5nncn5cn4)c(C)c3)c2cc1NC(=O)/C=C/[C@H]1CCCN1` [Final product of Embodiment 35], the IC50 in assay [1] came to 18.9 nM; in assay [2], 0.514 nM; in assay [3] it was 2.67 nM; in assay [4] it was 17.7 nM.

With `CCOc1cc2ncc(C#N)c(Nc3ccc(OCc4ccccn4)c(Cl)c3)c2cc1NC(=O)/C=C/[C@H]1CCCN1C` [drawing 239, reference compound], the results for the IC50 in assay [1], in assay [3] and in assay [4] were 1.2 nM, 1.67 nM and 2.56 nM, respectively.

Consider `Cc1cc(Nc2ncnc3ccc(NC(=O)/C=C/C4COCCN4)cc23)ccc1Oc1cc2nncn2cn1` (stereo not shown) [Final product of Embodiment 27, (E)-N-(4-((4-([1,2,4]triazolo[4,3-c]pyrimidin-7-yloxy)-3-methylphenyl)amino)quinazolin-6-yl)-3-(morpholin-3-yl)acrylamide], for which the IC50 turned out to be 77.5 nM in assay [1], 2.21 nM in assay [2], 1.61 nM in assay [3] and 25.7 nM in assay [4].

Regarding `CCOc1cc2ncc(C#N)c(Nc3ccc(OCc4ccccn4)c(Cl)c3)c2cc1NC(=O)/C=C/CN(C)C` [drawing 240, reference compound], the half-maximal inhibitory concentration (IC50) in assay [1] was found to be 0.82 nM.

Consider `C=CC(=O)N1CCC[C@@H](Nc2ccc3ncnc(Nc4ccc(Oc5cc6nncn6cn5)c(C)c4)c3c2)C1` [Final product of Embodiment 7, (R)-1-(3-((4-((4-([1,2,4]triazolo[4,3-c]pyrimidin-7-yloxy)-3-methylphenyl)amino)quinazolin-6-yl)amino)piperidin-1-yl)propan-2-en-1-one], for which the IC50 in assay [1] came to 65.5 nM; in assay [2], 7.09 nM; in assay [3], 0.851 nM; in assay [4] it was 49.5 nM.

`Cc1cc(Nc2ncnc3ccc(NC(=O)/C=C/[C@H]4CCCN4C)cc23)ccc1Oc1cnc2ccnn2c1`: the half-maximal inhibitory concentration (IC50) in assay [1] worked out at 1.6 nM; in assay [2], 0.757 nM; in assay [3] it was 1.09 nM; in assay [4], 2.65 nM.

Usually IC50 stands for the concentration needed to halve the response being measured.
